In patent US4452813A, “Sulfonate derivatives, process for preparing same and antilipemic compositions containing the derivative” (Taiho Pharmaceutical Company Limited, priority 1981, dated 1984):
Read-outs that look alike come from different tables or passages of the source.

Assays:
[1] = background literature, cited from earlier work
[2] = Acute toxicity, oral, one week; conditions: rat, in vivo, 5% gum arabic suspension
From the text: Six-week-old male Wister rats weighing 180 to 200 g are used, 5 rats in each group. The present compound is suspended in a 5% aqueous solution of gum arabic, and the suspension is orally given to the rats. For one week after the start of the test, the rats are checked evey day for general toxicity symptoms, body weight and death to determine the LD50 value.

Chymotripsin = Chymotripsin (Bos taurus, UniProt P00766); test: Chymotripsin inhibiting activity (hydrolysis of ATEE); assay type: biochemical; conditions: 0.5 h; 1 × 10^-4 mol; 20 min preincubation, ATEE 30 min, 37° C., pH 8.0
Procedure: 2. Chymotripsin Inhibiting Activity
Chymotripsin (0.1 unit) serving as an enzyme solution is added to a specified quantity of buffer solution (pH 8.0) containing 0.1 mole of trishydrochloric acid. To the mixture is further added a 50% ethanol solution of the compound of the invention. The mixture is reacted at 37° C. for 20 minutes.
On completion of the reaction, 10 micromoles of […] (ATEE) serving as a substrate is added to the mixture, and the resulting mixture is reacted at 37° C. for 30 minutes.
After the completion of the reaction, the amount of remaining ATEE is determined by the same hydroxamic acid method as above. The percent chymotripsin inhibition is given by [formula] wherein A is the amount of hydrolzed esters in the reaction system not containing the compound of the invention, and B is the amount of hydrolyzed esters in the reaction system containing the present compound.

[3] = system: triglycerides content in the plasma; test: Antilipemic effect: inhibition of olive oil-induced hyperlipidemia, plasma triglycerides; assay type: in vivo, male Wister rats; conditions: Rattus norvegicus, 100 mg compound in 5 ml olive oil, 5 ml/kg oral, 2 hours, read-out: Antilipemic effect IGI (%) (percent hyperlipidemia inhibition, triglycerides)
Procedure: Seven-week-old male Wister rats weighing 200 to 220 g are used, 5 rats in each group.
The compound of the invention (100 mg) is dissolved in 5 ml of olive oil. The olive oil containing the compound is orally given to the rat with a probe at a dose of 5 ml/kg. Two hours thereafter, 6 ml of whole blood is withdrawn from the descending aorta of the rat under ether anesthesia with a syringe containing heparin. The blood is centrifuged at 5° C. and 3000 r.p.m. to obtain the plasma. The plasma collected is used for determining the triglycerides content, using a triglycerides measuring kit (trade mark "Triglycerides-B Test Wako," product of Wako Junyaku Co., Ltd., Japan). Olive oil containing no compound is similarly given to a control group, while no treatment is conducted for a normal group. The triglycerides content in the plasma is also determined for these groups in the same manner as is the case with the test groups.
The percent hyperlipidemia inhibition achieved by the present compound is given by [formula] in which A is the triglycerides content of the control group, B is the triglycerides content of the normal group, and C is the triglycerides content of the group to which the present compound is given.

[4] = target: esterase (purified microsome fraction of the liver of a rat); test: Esterase inhibiting activity (hydrolysis of methyl butyrate); assay type: biochemical; conditions: methyl butyrate substrate, pH 8.0, 37° C., 60 minutes
Procedure: 1. Esterase Inhibiting Activity
A 10 micromole quantity of methyl butyrate in a 50% ethanol solution is added as a substrate to a specified amount of buffer solution (pH 8.0) containing 0.1 mole of trishydrochloric acid. To the mixture is further added a 50% ethanol solution of the compound of the invention, immediately followed by addition of an esterase solution prepared from a purified microsome fraction of the liver of a rat (adjusted to hydrolyze 9 micromoles of methyl butyrate at 37° C. in one hour). The mixture is reacted at 37° C. for 60 minutes.
After the reaction, alkaline hydroxylamine is added to the mixture to form a hydroxamic acid derivative of methyl butyrate, and a ferric salt is added to the derivative. The resulting red color is colorimetrically determined (at a wavelength of 540 nm) to determine the amount of remaining methyl butyrate. The esterase inhibiting ratios of the present compound at least at three concentrations are plotted as ordinate, and the logarithms of the concentrations as abscissa to obtain a line, which gives the 50% inhibition concentration (IC50).

| SMILES | reported side effects (in words) [1] | reported side effects (in words) ([1]; listed as clofibrate) | LD50 at 168 h [2] | inhibition at 100 µM (Chymotripsin) | inhibition in vivo at 100 mg/kg [3] | IC50 [4] |
| --- | --- | --- | --- | --- | --- | --- |
| CCOC(=O)C(C)(C)Oc1ccc(Cl)cc1 [Clofibrate] | carcinogenic activity | increased sterol discharge | – | – | – | – |
| Cc1ccc(S(=O)(=O)OCC(=O)[C@H]2CC[C@H](C(C)(C)C)CC2)cc1 [Compound 37] | – | – | > 3000 mg/kg | 22% | 66% | 5.4 µM |
| O=C(O)c1cccnc1 [Nicotinic acid] | pruritus and cutaneous flushing due to vasodilatation, gastrointestinal disorders, abnormalities in liver function and glucose intolerance | – | – | – | – | – |
